{"source": "paper PMC4291348", "about": "“A Continuous Enzyme-Coupled Assay for Triphosphohydrolase Activity of HIV-1 Restriction Factor SAMHD1” (Antimicrobial Agents and Chemotherapy, 2014)", "key": {"SAMHD1 [1]": {"test_system": "T1, SAMHD1", "T1 construct": "The catalytic domain of SAMHD1 (residues 115 to 626) was expressed and purified as previously described; made in house", "settings": "cited from earlier work; for Hydrolytic activity of SAMHD1 on the compound: in vitro"}, "[2]": {"biological_target": "T2, SAMHD1 (residues 115 to 626) (Homo sapiens, UniProt Q9Y3Z3)", "T2 construct": "The catalytic domain of SAMHD1 (residues 115 to 626) was expressed and purified as previously described; made in house", "T2 sequence (Q9Y3Z3 115-626)": "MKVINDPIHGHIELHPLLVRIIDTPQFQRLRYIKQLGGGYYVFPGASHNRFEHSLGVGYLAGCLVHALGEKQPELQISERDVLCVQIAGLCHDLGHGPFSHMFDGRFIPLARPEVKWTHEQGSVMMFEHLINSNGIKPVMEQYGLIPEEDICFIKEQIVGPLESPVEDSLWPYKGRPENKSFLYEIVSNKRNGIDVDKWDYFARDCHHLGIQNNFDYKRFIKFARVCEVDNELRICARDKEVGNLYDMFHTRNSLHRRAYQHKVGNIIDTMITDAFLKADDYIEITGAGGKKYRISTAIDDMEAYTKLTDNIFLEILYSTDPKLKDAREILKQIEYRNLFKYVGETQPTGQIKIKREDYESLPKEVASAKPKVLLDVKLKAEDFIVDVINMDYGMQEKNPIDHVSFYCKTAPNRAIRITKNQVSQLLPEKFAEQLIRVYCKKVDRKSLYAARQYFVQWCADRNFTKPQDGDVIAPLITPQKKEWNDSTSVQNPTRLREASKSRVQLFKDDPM", "assay": "Continuous enzyme-coupled (Ppx1 / MDCC-PBP) real-time assay of SAMHD1 triphosphohydrolase activity", "format": "biochemical", "settings": "for KA, apparent dissociation constant for activator binding (activator concentration for half-maximal hydrolysis of TTP substrate): TTP substrate 1 mM, activator varied; for Inhibitory effect on steady-state TTP hydrolysis by GTP-activated SAMHD1 (in words): increasing amounts of compound", "procedure": "The steady-state kinetics of SAMHD1 were determined by a coupled-enzyme assay using Ppx1 and a fluorescent phosphate biosensor, MDCC-PBP. The reactions were set up in 20-μl volumes in 384-well low-protein-binding microplates (Corning, USA), and the time-dependent fluorescence signal was measured using a Tecan Saffire^2 multiwell plate reader (Männedorf, Switzerland). Solutions containing SAMHD1 (residues 115 to 626), Ppx1, MDCC-PBP, an activator, and an inhibitor (if present) were incubated for 5 min at 25°C before the reaction was initiated by the addition of the substrate. The final concentrations were 100 nM SAMHD1, 10 nM Ppx1, and 40 μM MDCC-PBP. Depending on the experiment, the concentration of the substrate, the activator, or the inhibitor varied while the substrate and/or the activator was held constant at 1 mM and 0.2 mM, respectively. The fluorescence intensity was recorded at 430 nm for excitation and 465 nm for emission wavelengths, with a 7-nm slit width, at 8- to 10-s time intervals over a period of 10 to 30 min. The standard curves were obtained by incubating 40 μM MDCC-PBP with different concentrations of phosphate (Pi) and measuring the fluorescence, as discussed above. The fluorescence response was linear and in the range of 0 to 20 μM Pi.\nThe steady-state rates were obtained from the time courses of Pi formation by linear regression of the data points in the linear phase of the reaction. Rates were divided by the SAMHD1 concentration and were plotted versus the activator, substrate, or inhibitor concentration. Apparent dissociation constants for the activator (KA) or the substrate binding (KS) and the catalytic constant (kcat) were determined by nonlinear least-squares fitting using either a hyperbolic or a Hill-function equation in the software package GraFit 7.0.3 (Erithacus Software, United Kingdom) ([22]). […] Data from the three different experiments were analyzed by a least-squares fit using the equation for competitive inhibition. The fits for the three data sets yielded invariant values for the inhibition constants (Ki), supporting a competitive mode of inhibition. All measurements were performed in triplicate in the reaction buffer."}, "Ppx1": {"biological_target": "T3, Ppx1 (Saccharomyces cerevisiae, UniProt P38698)", "T3 construct": "StrepII-tag (N); made in house; host or cells: Escherichia coli BL21(DE3)", "T3 sequence (P38698 whole entry)": "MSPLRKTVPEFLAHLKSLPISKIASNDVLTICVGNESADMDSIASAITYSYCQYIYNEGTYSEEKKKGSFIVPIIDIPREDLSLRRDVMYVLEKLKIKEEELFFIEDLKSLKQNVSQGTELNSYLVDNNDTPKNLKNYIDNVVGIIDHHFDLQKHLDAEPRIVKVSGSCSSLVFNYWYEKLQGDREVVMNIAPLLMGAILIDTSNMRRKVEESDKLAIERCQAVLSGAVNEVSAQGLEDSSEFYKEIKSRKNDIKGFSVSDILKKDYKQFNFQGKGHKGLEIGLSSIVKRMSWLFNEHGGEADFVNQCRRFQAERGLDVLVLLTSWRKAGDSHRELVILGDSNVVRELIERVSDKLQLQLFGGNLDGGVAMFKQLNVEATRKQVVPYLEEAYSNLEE", "assay": "Ppx1 triphosphate hydrolysis kinetics and specificity controls", "format": "biochemical", "settings": "recombinant Ppx1 0.3 nM, 25°C, MDCC-PBP", "procedure": "Sample controls were used to check for potential Ppx1 activity on the compounds and the reagents. In these assays, the 200 μM compound was incubated in a reaction buffer at 25°C for 30 s with 500 nM Ppx1, either with or without 200 μM triphosphate. The Ppx1 activity was determined by measuring phosphate release with malachite green detection, as described for the coupled assay above.\nThe initial control experiments were undertaken to assess the suitability of Ppx1 as a coupled enzyme for the assay. The Km for Ppx1 hydrolysis of a polyphosphate ranged from 0.004 to 140 μM ([23]) for P250 to P3 substrates, with kcat values between 180 and 1,500 s^−1 at 37°C, depending on the preparation ([23][–][25]). […] Over the triphosphate substrate concentration range employed in the assays, this rate is substantially higher than that of SAMHD1 dNTP hydrolysis (kcat, ∼1.3 s^−1) and so is suitable as the coupling enzyme in an assay. […]\nFIG 2 Kinetics and specificity of Ppx1 hydrolysis. (A) Steady-state kinetics of Ppx1-catalyzed triphosphate cleavage to Pi and PPi were measured using 40 μM MDCC-PBP, 0.3 nM Ppx1, and various concentrations of the triphosphate. The error bars represent the SEM of three independent measurements recorded at each substrate concentration. […] (B) Specificity of Ppx1 hydrolysis was measured using the malachite green endpoint assay. […]"}, "SAMHD1 [3]": {"test_system": "T1, SAMHD1", "assay": "Malachite green endpoint Ppx1-coupled assay of SAMHD1 (compound screening)", "format": "biochemical, human", "settings": "for SAMHD1 activation (TTP hydrolysis relative to control GTP): 200 μM compound as activator, 1 mM TTP substrate; for SAMHD1 inhibition (TTP hydrolysis after inclusion of test compound): 200 μM compound, 200 μM GTP, 1 mM TTP; for Hydrolysis by GTP-activated SAMHD1: 1 mM compound plus 200 μM GTP, relative to control TTP", "procedure": "The substrates and compounds were obtained from Jena Biosciences (Jena, Germany) or Thermo Fisher Scientific (Massachusetts, USA). The phosphate concentration was determined using the recommended protocol supplied with the PiColorLock gold phosphate detection system from Innova Biosciences (Cambridge, United Kingdom). Time-course assays were conducted in low-protein-binding 96-well black plates (Corning, USA). The absorbance was measured using a Tecan Safire^2 (Männedorf, Switzerland) plate reader at 630 nm in a fixed-wavelength mode. All the assays were prepared as master mixes immediately before use in a reaction buffer containing 20 mM Tris-HCl, 150 mM NaCl, 5 mM MgCl2, and 2 mM TCEP at pH 7.5.\nTo determine the triphosphohydrolase activity of SAMHD1, 1 mM substrate and 200 μM allosteric activator were incubated with 5 μM SAMHD1 and 500 nM Ppx1. Fixed-volume samples were removed at predetermined time intervals, and activity was stopped by the addition of 0.25 vol of gold mix (PiColorLock gold) through acidification to a pH of approximately 1.0. After 5 min of incubation at 25°C, 0.1 volume of stabilizer solution (PiColorLock gold) was added, and the mixtures were incubated for a further 30 min at 25°C. The final absorbance was measured as 630 nm by scanning 10 times and averaging data. Each assay was completed in triplicate. The triplicated readings were averaged and normalized by subtracting the average zero-standard optical density. The averaged optical density reading was then compared to a known standard of monophosphate to calculate the concentration of phosphate released.\nTo determine whether a compound was both a substrate and an allosteric activator of SAMHD1, only 1 mM of the compound of interest was included in the reaction. To test if a compound was a substrate for activated SAMHD1, 1 mM of the compound plus 200 μM GTP was included."}, "HIV-1": {"test_system": "HIV-1", "parameters": "method as in PMID 24867973, PMID 23744077, PMID 24913159", "settings": "monocyte-derived macrophages and activated CD4+ T cells; cited from earlier work"}}, "note": "Several values for one entry are separate records, joined by “and”; a condition that tells them apart may be missing. Equal values may be shown once. Entries after “also recorded” stand apart in the source; their conditions may differ."}
{"smiles": "Nc1ccn([C@H]2CS[C@@H](COP(=O)(O)OP(=O)(O)OP(=O)(O)O)O2)c(=O)n1", "note": "[3TC-TP, 2′,3′-dideoxy-3′-thiacytidine triphosphate]", "values": [{"measurement": "Hydrolytic activity of SAMHD1 on the compound", "setting": "SAMHD1 [1]", "value": "little or no hydrolytic activity"}]}
{"smiles": "Cc1cn([C@H]2C[C@H](O)[C@@H](COP(=O)(O)OP(=O)(O)OP(=O)(O)O)O2)c(=O)[nH]c1=O", "note": "[TTP]", "values": [{"measurement": "nS, Hill coefficient for substrate binding", "setting": "[2]; Acyclovir-TP as activator, TTP substrate", "value": "3.0 ± 0.1"}, {"measurement": "KS, apparent dissociation constant for substrate binding", "setting": "[2]; Acyclovir-TP as activator, TTP substrate, Hill-modified model", "value": "353 ± 16", "unit": "µM"}, {"measurement": "KS, apparent dissociation constant for substrate binding", "setting": "[2]; GTP activator 0.2 mM, 25°C", "value": "96.3 ± 1.7", "unit": "µM"}]}
{"smiles": "O=P(O)(O)OP(=O)(O)OP(=O)(O)O", "note": "[triphosphate]", "values": [{"measurement": "kcat of Ppx1 triphosphate hydrolysis", "setting": "Ppx1", "value": "338 s⁻¹ and 338 ± 31 s⁻¹"}]}
{"smiles": "Nc1nc(Cl)nc2c1ncn2[C@@H]1O[C@H](COP(=O)(O)OP(=O)(O)OP(=O)(O)O)[C@@H](O)[C@@H]1F", "note": "[Clofarabine-TP, clofarabine triphosphate]", "values": [{"measurement": "nS, Hill coefficient for substrate binding", "setting": "[2]; GTP activator 0.2 mM", "value": "2.8 ± 0.1"}, {"measurement": "KS, apparent dissociation constant for substrate binding", "setting": "[2]; GTP activator 0.2 mM, 25°C", "value": "67.6 ± 8.9", "unit": "µM"}, {"measurement": "SAMHD1 activation (TTP hydrolysis relative to control GTP)", "setting": "SAMHD1 [3]", "value": "no activation"}, {"measurement": "SAMHD1 inhibition (TTP hydrolysis after inclusion of test compound)", "setting": "SAMHD1 [3]", "value": "diminished only slightly"}, {"measurement": "Hydrolysis by GTP-activated SAMHD1", "setting": "SAMHD1 [3]", "value": "hydrolyzed at a rate comparable to that of the control TTP; also recorded: hydrolyzed by SAMHD1 at a rate comparable to that of natural dNTP substrates"}]}
{"smiles": "Nc1nc2c(ncn2COCCOP(=O)(O)OP(=O)(O)OP(=O)(O)O)c(=O)[nH]1", "note": "[Acyclovir-TP, acyclovir triphosphate]", "values": [{"measurement": "EC50", "setting": "[2]", "value": "15.6 ± 2.2", "unit": "µM"}, {"measurement": "SAMHD1 inhibition (TTP hydrolysis after inclusion of test compound)", "setting": "SAMHD1 [3]", "value": "not significantly inhibited"}, {"measurement": "Hydrolysis by GTP-activated SAMHD1", "setting": "SAMHD1 [3]", "value": "refractory to hydrolysis; also recorded: not a substrate"}]}
{"smiles": "Cc1cn([C@H]2C[C@H](N=[N+]=[N-])[C@@H](CO[P@](=O)(O)O[P@](=O)(O)OP(=O)(O)O)O2)c(=O)[nH]c1=O", "note": "[AZT-TP, azidothymidine triphosphate]", "values": [{"measurement": "Hydrolytic activity of SAMHD1 on the compound", "setting": "SAMHD1 [1]", "value": "little or no hydrolytic activity"}]}
{"smiles": "Nc1nc2c(ncn2[C@@H]2O[C@H](COP(=O)(O)OP(=O)(O)OP(=O)(O)O)[C@@H](O)[C@H]2O)c(=O)[nH]1", "note": "[GTP]", "values": [{"measurement": "KA, apparent dissociation constant for activator binding (activator concentration for half-maximal hydrolysis of TTP substrate)", "setting": "[2]; 25°C", "value": "32.0 ± 4.2", "unit": "µM"}, {"measurement": "Activation of SAMHD1", "setting": "SAMHD1 [1]", "value": "activates SAMHD1 as effectively as dGTP"}]}
{"smiles": "Nc1ncnc2c1ncn2[C@H]1C[C@H](O)[C@@H](COP(=O)(O)NP(=O)(O)OP(=O)(O)O)O1", "note": "[dApNHpp]", "values": [{"measurement": "Inhibitory effect on steady-state TTP hydrolysis by GTP-activated SAMHD1 (in words)", "setting": "[2]; GTP activator, TTP substrate", "value": "potent inhibition; also recorded: strong competitive inhibitor"}, {"measurement": "Ki", "setting": "[2]; read-out: Ki, inhibition constant", "value": "1.13 ± 0.07", "unit": "µM"}, {"measurement": "SAMHD1 activation (TTP hydrolysis relative to control GTP)", "setting": "SAMHD1 [3]", "value": "no activation"}, {"measurement": "SAMHD1 inhibition (TTP hydrolysis after inclusion of test compound)", "setting": "SAMHD1 [3]", "value": "substantial reduction in TTP hydrolysis to near background levels"}, {"measurement": "Hydrolysis by GTP-activated SAMHD1", "setting": "SAMHD1 [3]", "value": "refractory to hydrolysis"}]}
{"smiles": "Cc1cn([C@H]2C[C@H](N=[N+]=[N-])[C@@H](CO)O2)c(=O)[nH]c1=O", "note": "[AZT]", "values": [{"measurement": "Change in efficacy against HIV-1 infection on downregulation of SAMHD1", "setting": "HIV-1", "value": "large decrease in the efficacy"}]}
{"smiles": "Nc1nc2c(ncn2COC(CO)COP(=O)(O)OP(=O)(O)OP(=O)(O)O)c(=O)[nH]1", "note": "(stereo not drawn) [Ganciclovir-TP, ganciclovir triphosphate]", "values": [{"measurement": "Ki, inhibition constant", "setting": "[2]; GTP activator, TTP substrate (1, 0.3, 0.1 mM), competitive inhibition model", "value": "No inhibition"}, {"measurement": "KA, apparent dissociation constant for activator binding (activator concentration for half-maximal hydrolysis of TTP substrate)", "setting": "[2]; 25°C", "value": "No activation"}, {"measurement": "KA, apparent dissociation constant for activator binding (activator concentration for half-maximal hydrolysis of TTP substrate)", "setting": "[2]; 25°C, listed as ganciclovir-TP", "value": "unable to activate SAMHD1"}, {"measurement": "Inhibitory effect on steady-state TTP hydrolysis by GTP-activated SAMHD1 (in words)", "setting": "[2]; GTP activator, TTP substrate", "value": "no effect"}, {"measurement": "SAMHD1 activation (TTP hydrolysis relative to control GTP)", "setting": "SAMHD1 [3]", "value": "no activation"}, {"measurement": "SAMHD1 inhibition (TTP hydrolysis after inclusion of test compound)", "setting": "SAMHD1 [3]", "value": "not significantly inhibited"}, {"measurement": "Hydrolysis by GTP-activated SAMHD1", "setting": "SAMHD1 [3]", "value": "refractory to hydrolysis"}]}
{"smiles": "Cc1cn([C@H]2C=C[C@@H](COP(=O)(O)OP(=O)(O)OP(=O)(O)O)O2)c(=O)[nH]c1=O", "note": "[d4T-TP, 2′,3′-didehydro-2′,3′-dideoxythymidine triphosphate]", "values": [{"measurement": "Hydrolytic activity of SAMHD1 on the compound", "setting": "SAMHD1 [1]", "value": "little or no hydrolytic activity"}]}
